Results as given in patent US20200368315A1, “ANTIMICROBIAL PEPTIDES AND ADMIXTURES THEREOF SHOWING ANTIMICROBIAL ACTIVITY AGAINST GRAM-NEGATIVE PATHOGENS” (priority 2017, published 2020).
In brackets after ≈: the same amount, converted by molar mass. Several values for one entry are separate records, joined by “and”; a condition that tells them apart may be missing. Equal entries are not always repeated. Where two headings read alike, the source gives them in different places. No end group written: not given here.

Key:
indicator strains = settings: indicator strain not given; cited from earlier work
[1] = cited from earlier work
E. coli LMG15862 [2] = experiment: microbe, parasite or virus in culture; format: cell-based, Escherichia coli; settings: for MICb (GNP concentration when used alone): L-form GNP, E. coli LMG15862, Table 6
Method: (§1) Escherichia coli, Klebsiella pneumoniae, Pseudomonas aeruginosa, Acinetobacter baumannii, Enterobacter aerogenes were grown in Luria-Bertani (LB) broth shaken (200 rpm) or on LB agar at 37° C. […] MICs tests were performed in duplicate by a liquid growth inhibition microdilution assays in sterilized polypropylene microtiter plates according to Wiegand and […] [27]. […] The suspension was diluted in a ratio of 1:100 using Mueller Hinton Broth (MHB) and the final inoculum is 5*10^5 CFU/mL. […] The antimicrobials were diluted serially by 1/2 one by one and 50 uL diluted bacterial suspension were added to each well to make the final volume to be 100 uL. Growth control was accomplished by remove 10 uL from well 11 and dilute 1000 times to plate 1/10 suspension on the solid medium. […] The number of colonies on the control agar plate should be around 50 to ensure the concentration of the inoculum and the effectiveness of the experiment. The lowest concentration of the antimicrobials that inhibits visible growth of the indicator is identified as MIC.

K. pneumoniae LMG20218 [3] = experiment: microbe, parasite or virus in culture; format: cell-based, Klebsiella pneumoniae; settings: LMG20218
Method: as §1

P. aeruginosa LMG 6395 [4] = experiment: microbe, parasite or virus in culture; format: cell-based, Pseudomonas aeruginosa; settings: LMG 6395
Method: as §1

A. baumannii LMG01041 [5] = experiment: microbe, parasite or virus in culture; format: cell-based, Acinetobacter baumannii; settings: LMG01041
Method: as §1

E. aerogenes LMG 02094 [6] = experiment: microbe, parasite or virus in culture; format: cell-based, Enterobacter aerogenes; settings: LMG 02094
Method: as §1

E. coli LMG15862 [7] = format: cell-based, Escherichia coli
Description: (§2) The test of synergistic effect was processed by conducting standard chequerboard broth microdilution assays. Nisin (Drug X) was loaded two fold serially diluted from row 1 to 10 in X-axis while GNPs (Drug Y) were loaded in eight two fold serially diluted concentrations from line A to H in Y-axis (FIG. 1). The original concentrations of peptides were MICs of each. Row 11 are used as growth control with no peptide was included, while row 12 with MHB medium-only wells was included as a sterility control as referred before. 50 uL fresh bacterial suspension was added to well 1-11 and final volume of each well on the plate is 100 uL.
(§3) To determine whether the combination therapy is additive, synergistic or antagonistic, fractional inhibitory concentration (FIC) indices were calculated. FICI=FICa+FICb=MICac/MICa+MICbc/MICb. The MICa/MICb is the MIC of compound A/B alone. MICac is the MIC of compound A in combination with compound B and MICbc is the MIC of compound B when it was combination with compound A. […]. FICa is FIC of compound A while FICb is FIC of compound B. The FICI is interpreted as follows: synergistic, FICI≤0.5; additive, 0.5<FICI<1; indifferent, 1<FICI<2; antagonistic, FICI>2.

K. pneumoniae LMG20218 [8] = format: cell-based, Klebsiella pneumoniae
Description: as §2, §3

P. aeruginosa LMG 6395 [9] = format: cell-based, Pseudomonas aeruginosa
Description: as §2, §3

A. baumannii LMG01041 [10] = format: cell-based, Acinetobacter baumannii
Description: as §2, §3

E. aerogenes LMG 02094 [11] = format: cell-based, Enterobacter aerogenes
Description: as §2, §3

A. baumannii LMG01041 [12] = settings: MIC of GNP alone
Method: (§4) The test of synergistic effect was processed by conducting standard chequerboard broth microdilution assays. […] Row 11 are used as growth control with no peptide was included, while row 12 with MHB medium-only wells was included as a sterility control as referred before. 50 uL fresh bacterial suspension was added to well 1-11 and final volume of each well on the plate is 100 uL.
(§5) The test of synergistic effect was processed as method 1.4.
as §3

E. aerogenes LMG 02094 [13] = test system: E. aerogenes LMG 02094
Method: as §4, §5, §3

E. coli LMG15862 [14] = test system: E. coli LMG15862
Method: as §4, §5, §3

K. pneumoniae LMG20218 [15] = test system: K. pneumoniae LMG20218
Method: as §4, §5, §3

P. aeruginosa LMG 6395 [16] = test system: P. aeruginosa LMG 6395
Method: as §4, §5, §3

L. lactis MG1363 = settings: MG1363
Gram-negative pathogens = format: cell-based; settings: L-form GNPs alone; five Gram-negative pathogens
Method: as §1

[17] = MIC of GNP when used with the MICac concentration of nisin
[18] = MIC of nisin in combination with the GNP at the MICbc concentration
[19] = MIC of GNP in combination with vancomycin at the MICac concentration
[20] = MIC of vancomycin in combination with the GNP at the MICbc concentration

## CCCCCCCCCCNCCN[C@@]1(C)C[C@H](O[C@H]2[C@H](Oc3c4cc5cc3Oc3ccc(cc3Cl)[C@@H](O)[C@@H](NC(=O)[C@@H](CC(C)C)NC)C(=O)N[C@@H](CC(N)=O)C(=O)N[C@H]5C(=O)N[C@H]3C(=O)N[C@H](C(=O)N[C@H](C(=O)O)c5cc(O)c(CNCP(=O)(O)O)c(O)c5-c5cc3ccc5O)[C@H](O)c3ccc(c(Cl)c3)O4)O[C@H](CO)[C@@H](O)[C@@H]2O)O[C@@H](C)[C@H]1O [Telavancin]
Indicator strains
  Biological activity (relative to the wild type): Increased (Increased activity, >120% compared with the activity of vancomycin)

## Chlorobiphenyl Des-methyl vancomycin [Compound 8]
Indicator strains
  Biological activity (relative to the wild type): Increased (Increased activity, >120% compared with the activity of vancomycin)

## N20P (ITSISLCTPGCKTGALMGCPMKTATCHCSIHVSK; not fully specified; cysteine pairing not given here; also: lantibiotic nisin-A; UniProt P13068 24-57, looked up, variant N20P)
[1]; gene nisA (nisin A mutants)
  Biological activity (relative to the wild type): Increased (Increased activity, >120% compared to the activity of wild type nisin A/Z)

## CC[C@H](C)[C@H](NC(=O)[C@H](CCCNC(=N)N)NC(=O)[C@H](CCC(N)=O)NC(=O)[C@@H](NC(=O)[C@@H](NC(=O)[C@@H](N)CCCNC(=N)N)[C@@H](C)CC)C(C)C)C(=O)N[C@@H](CCCCN)C(=O)N[C@@H](CCCCN)C(=O)N[C@@H](Cc1c[nH]c2ccccc12)C(=O)N[C@@H](CC(C)C)C(=O)N[C@@H](CCCNC(=N)N)C(N)=O [GNP-8]
E. coli LMG15862 [2]
  MICb (GNP concentration when used alone): 12 µM
E. coli LMG15862 [2]; LMG15862
  MIC value: 12 µM (≈ 17.9 µg/mL)
K. pneumoniae LMG20218 [3]
  MIC value: 32 µM (≈ 47.8 µg/mL)
  MICb (MIC of GNP alone): 32 µM
P. aeruginosa LMG 6395 [4]
  MIC value: 16 µM (≈ 23.9 µg/mL)
  MICb (MIC of GNP alone): 16 µM
A. baumannii LMG01041 [5]
  MIC value: >64 µM
  MICb (MIC of GNP alone): >64 µM
E. aerogenes LMG 02094 [6]
  MIC value: 128 µM (≈ 191 µg/mL)
  MICb (MIC of GNP alone): 128 µM
E. coli LMG15862 [7]; MIC of GNP alone
  MICb: 12 µM
E. coli LMG15862 [7]; [17]
  MICbc: 1.5 µM
E. coli LMG15862 [7]; [18]
  MICac: 1.5 µM
K. pneumoniae LMG20218 [8]; MIC of GNP alone
  MICb: 32 µM
K. pneumoniae LMG20218 [8]; [17]
  MICbc: 1 µM
K. pneumoniae LMG20218 [8]; [18]
  MICac: 0.75 µM
P. aeruginosa LMG 6395 [9]; MIC of GNP alone
  MICb: 16 µM
P. aeruginosa LMG 6395 [9]; [17]
  MICbc: 0.5 µM
P. aeruginosa LMG 6395 [9]; [18]
  MICac: 4.5 µM
A. baumannii LMG01041 [10]; MIC of GNP alone
  MICb: >64 µM
A. baumannii LMG01041 [10]; [17]
  MICbc: 4 µM
A. baumannii LMG01041 [10]; [18]
  MICac: 0.19 µM
E. aerogenes LMG 02094 [11]; MIC of GNP alone
  MICb: 128 µM
E. aerogenes LMG 02094 [11]; [17]
  MICbc: 1 µM
E. aerogenes LMG 02094 [11]; [18]
  MICac: 4 µM
A. baumannii LMG01041 [12]
  MICb: >64 µM
E. aerogenes LMG 02094 [13]; MIC of GNP alone
  MICb: 128 µM
E. aerogenes LMG 02094 [13]; [19]
  MICbc: 8 µM and 16 µM
E. aerogenes LMG 02094 [13]; [20]
  MICac: 12 µM and 6 µM
E. coli LMG15862 [14]; MIC of GNP alone
  MICb: 12 µM
E. coli LMG15862 [14]; [19]
  MICbc: 1.5 µM and 0.75 µM
E. coli LMG15862 [14]; [20]
  MICac: 4 µM and 8 µM
K. pneumoniae LMG20218 [15]; MIC of GNP alone
  MICb: 32 µM
K. pneumoniae LMG20218 [15]; [19]
  MICbc: 2 µM and 1 µM
K. pneumoniae LMG20218 [15]; [20]
  MICac: 4 µM and 8 µM
P. aeruginosa LMG 6395 [16]; MIC of GNP alone
  MICb: 16 µM
P. aeruginosa LMG 6395 [16]; [19]
  MICbc: 2 µM and 1 µM
P. aeruginosa LMG 6395 [16]; [20]
  MICac: 8 µM and 16 µM
L. lactis MG1363
  MIC value of antimicrobial compounds alone: 24 µM

## RIWVIWRR-NH2 [GNP-5]
E. coli LMG15862 [2]
  MICb (GNP concentration when used alone): 3 µM
K. pneumoniae LMG20218 [3]
  MICb (MIC of GNP alone): 6 µM
P. aeruginosa LMG 6395 [4]
  MICb (MIC of GNP alone): 3 µM
A. baumannii LMG01041 [5]
  MICb (MIC of GNP alone): 2 µM
E. aerogenes LMG 02094 [6]
  MICb (MIC of GNP alone): 5 µM
Gram-negative pathogens
  Activity ranking amongst all the GNPs: most potent

## M21V (ITSISLCTPGCKTGALMGCNVKTATCHCSIHVSK; cysteine pairing not given here; also: lantibiotic nisin-A; UniProt P13068 24-57, looked up, variant M21V)
[1]; gene nisA (nisin A mutants)
  Biological activity (relative to the wild type): Increased (Increased activity, >120% compared to the activity of wild type nisin A/Z)

## K22S (ITSISLCTPGCKTGALMGCNMSTATCHCSIHVSK; cysteine pairing not given here; also: lantibiotic nisin-A; UniProt P13068 24-57, looked up, variant K22S)
[1]; gene nisA (nisin A mutants)
  Biological activity (relative to the wild type): Increased (Increased activity, >120% compared to the activity of wild type nisin A/Z)

## K12V (ITSISLCTPGCVTGALMGCNMKTATCHCSIHVSK; cysteine pairing not given here; also: lantibiotic nisin-A; UniProt P13068 24-57, looked up, variant K12V)
[1]; gene nisA (nisin A mutants)
  Biological activity (relative to the wild type): Increased (Increased activity, >120% compared to the activity of wild type nisin A/Z)

## Teicoplanin [2a]
Indicator strains
  Biological activity (relative to the wild type): Increased (Increased activity, >120% compared with the activity of vancomycin)

## CN[C@H](CC(C)C)C(=O)N[C@H]1C(=O)N[C@@H](CC(N)=O)C(=O)N[C@H]2C(=O)N[C@H]3C(=O)N[C@H](C(=O)N[C@H](C(=O)O)c4cc(O)cc(O)c4-c4cc3ccc4O)[C@H](O)c3ccc(c(Cl)c3)Oc3cc2cc(c3O[C@@H]2O[C@H](CO)[C@@H](O)[C@H](O)[C@H]2O[C@H]2C[C@](C)(NCc3ccc(-c4ccc(Cl)cc4)cc3)[C@H](O)[C@H](C)O2)Oc2ccc(cc2Cl)[C@H]1O [Compound 1, Chlorobiphenyl Vancomycin]
Indicator strains
  Biological activity (relative to the wild type): Increased (Increased activity, >120% compared with the activity of vancomycin)

## N20V (ITSISLCTPGCKTGALMGCVMKTATCHCSIHVSK; not fully specified; cysteine pairing not given here; also: lantibiotic nisin-A; UniProt P13068 24-57, looked up, variant N20V)
[1]; gene nisZ (nisin Z mutants)
  Biological activity (relative to the wild type): Increased (Increased activity, >120% compared to the activity of wild type nisin A/Z)
